The subject of series [1] is obese subjects. The settings on record: cited from earlier work.
Series [2] has as its system STZ-induced diabetic rat model. The experiment in a line: Blood glucose response after oral gavage in the STZ-induced diabetic rat model. The settings on record: STZ-induced diabetic rats. Format: in vivo, Sprague Dawley rats. The source says:
To examine the in vivo efficacy of the B12-insulin conjugate, blood from the STZ-induced diabetic rat model was sampled by means of a jugular catheter prior to and subsequent to oral administration of the B12-insulin conjugate and compared to the blood glucose response following administration of an equimolar solution of free insulin (FIG. 8A and B).
Animals. Male Sprague Dawley rats (323±36; ±SD; n=12) were purchased pre-catheterised (Jugular vein) from Charles River Laboratories (Wilmington, Mass.), acclimatised for three days and then rendered insulin-deficient via infusion of streptozotocin (STZ; 60 mg/kg body weight) dissolved in citrate buffer and used within 15 min of preparation. Blood glucose concentration was assessed over four days to ensure fasting levels of greater than 14 mmol/L (>250 mg/dl) were reached. Animals were housed individually and maintained on a 12-hr light-dark (0600-1800 h) cycle with free access to food (standard laboratory chow; Scotts' Distributing, Inc) and water. Maintenance of animals and experimental protocols were conducted in accordance with federal regulations and approved by the Syracuse University Institutional Animal Care and Use Committee (Protocol Number SU 09-102)
Animal experimental design. On the day of experimentation, animals were fasted for 4 hours prior to the sampling of blood (50 μl) and the B12-insulin compound (100 nm/ml) was subsequently administered via oral gavage (1 ml). Blood was then sampled at 30-, 60-, 90-, 120-, 150-, 180-, 210-, 240-, 270- and 300-min after the administration of the conjugate for the calculation of area under the blood glucose curve (YSI 2300 STAT PLUS, YSI Incorporated, Yellow Springs, Ohio). Two control groups were used in this set of experiments; the first received a molar-equivalent concentration (100 nm) of free insulin (1 ml) while the second control group received the same quantity of the B12-insulin conjugate as the experimental group, however the conjugate was dissolved in 10^5-fold excess B12.

Series [3] has as its system Intrinsic Factor. The series is described as follows: Spectrophotometric Intrinsic Factor in vitro binding studies. The settings on record: 50 mM HEPES. How it is done: Intrinsic Factor binding studies. Intrinsic Factor (10 mg, […]) was dissolved in 1 mL dH2O. A 50 μL aliquot of B12-insulin was added to 950 μL of 50 mM HEPES buffer. Baseline was run against HEPES buffer and the first scan of B12-insulin was taken without Intrinsic Factor. A 5 μL aliquot of Intrinsic Factor was added to the B12-insulin, mixed and a second scan was taken. This procedure was repeated for five additions of Intrinsic Factor.

The nature of series [4]: Melting circular dichroism studies (222 nm). Format: physicochemical. Particulars: 50 mM HEPES. The method, then: Melting circular dichroism (CD) studies. Circular dichroism (CD) was performed on an Aviv model 202 spectrometer set at 222 nm with a 1 mL Quartz cuvette. All samples were prepared in 50 mM HEPES buffer (pH 9.7) with 25 mM carbonate and 10 mM EDTA and heated from 25 to 80° C. in 1° increments then cooled from 80 to 25° C. in the same increment. Sample concentrations ranged from 1.00 μM to 1.35 μM. […] All results were duplicated per batch and run for every batch prior to in vivo testing.
(In general: CD spectra are sensitive to the conformation of chiral molecules.)

The conditions of series [5]: humans; cited from earlier work.
For series [6], the system named is humans. Particulars: cited from earlier work.
Series [7] relates to humans. Particulars: cited from earlier work; for decrease in caloric intake: total dose 2 nmol/m^2 body-surface area, 90-min infusion.
The conditions of series [8]: in vivo; cited from earlier work.
The conditions of series [9]: native insulin, Tietze et al. 1953; cited from earlier work.
The conditions of series [10]: oral-enteric route; cited from earlier work.

Like-named read-outs stand apart in the source and are kept apart here.

Take `CC(C)CC(N(C)C)C1(c2ccc(Cl)cc2)CCC1` (stereo not drawn) [sibutramine]: in [1], the mean weight loss is reported as 10% and the “reduction of acute caloric intake” value is reported as 16%.
For “B12-insulin conjugate: Bovine insulin conjugated using CDI at B strand lysine29 to the 5′-hydroxyl group of B12; carbamate linked conjugate”, the “reduction of blood glucose levels compared with free insulin” value in series [2] (oral administration) is on record as “more effective than free insulin”. The “time of nadir in the blood glucose response” value in [2] (oral administration) worked out at 4 h. Further, the “greater decrease in the area under the blood glucose curve compared to free insulin” value in series [2] (oral gavage 1 ml of 100 nm/ml, 300 min, vs equimolar free insulin, p=0.056) is given as 4.7 fold. For the same compound, the “binding to Intrinsic Factor” value in [3] was “recognizing the B12-insulin conjugate”; in series [3] (listed as insulin-B12 conjugate) it was “successful binding”. Moreover, the entries for the “melting temperature (circular dichroism)” value in [4] and in series [4] (listed as B12-insulin) were roughly 65 °C and 55 °C, respectively.
Take Cyanocobalamin [B12]: the uptake capacity in series [5] was 1-2 μg per dosage.
Consider “GLP-1(7-36)amide: Glucagon-like peptide-1 (7-36) amide, endogenous incretin peptide”, for which, in series [6] (infusion, meta-analysis), the “average acute reduction of food intake” value is reported as 11.7%. The weight loss in [6] (prandial subcutaneous injections for 5 days, obese but otherwise healthy subjects) is reported as 0.55 kg.
As to “PYY3-36: truncated form of Peptide YY, endogenous appetite suppressing peptide”, the “reduction in calorie intake” value in series [7] (lean humans, i.v. infusion 0.8 pmol/kg/min, free-choice buffet meal 2 hours after end of infusion) was “approximately 36%”. For the same compound, the entries for the “decrease in caloric intake” value in [7] (lean subjects) and in series [7] (obese subjects) were 31% and 30%, respectively. For the same compound, in [8], the “time for plasma level to return to baseline after end of infusion” value is no more than 30 min.
In general, half-life refers to the time needed for the level to fall by half in the phase considered. On to insulin, for which, in [9], the half-life is given as 10 min. For the same compound, the bioavailability entry in series [10] is reported as “about 5%”.

Values taken from patent US8883723B2, “Conjugate of insulin and vitamin B12 for oral delivery” (Syracuse University, priority 2007, dated 2014).
